From paper PMC9814781, “Structure-based design of a dual-warhead covalent inhibitor of FGFR4” (Communications Chemistry, 2022)
pIC50: −log10 of the molar value.

How the values were obtained:
CDK3/CycE1 = CDK3/CycE1 (Homo sapiens, UniProt Q00526); assay: Kinase selectivity profiling
HIPK3 = HIPK3 (Homo sapiens, UniProt Q9H422); assay: Kinase selectivity profiling
ALK4 = ALK4 (Homo sapiens, UniProt P36896); assay: Kinase selectivity profiling
ABL2 = ABL2 (Homo sapiens, UniProt P42684); assay: Kinase selectivity profiling
AurB = AurB (Homo sapiens, UniProt Q96GD4); assay: Kinase selectivity profiling
FES = FES (Homo sapiens, UniProt P07332); assay: Kinase selectivity profiling
BRSK2 = BRSK2 (Homo sapiens, UniProt Q8IWQ3); assay: Kinase selectivity profiling
Chain of BRSK2 (Q8IWQ3 whole entry): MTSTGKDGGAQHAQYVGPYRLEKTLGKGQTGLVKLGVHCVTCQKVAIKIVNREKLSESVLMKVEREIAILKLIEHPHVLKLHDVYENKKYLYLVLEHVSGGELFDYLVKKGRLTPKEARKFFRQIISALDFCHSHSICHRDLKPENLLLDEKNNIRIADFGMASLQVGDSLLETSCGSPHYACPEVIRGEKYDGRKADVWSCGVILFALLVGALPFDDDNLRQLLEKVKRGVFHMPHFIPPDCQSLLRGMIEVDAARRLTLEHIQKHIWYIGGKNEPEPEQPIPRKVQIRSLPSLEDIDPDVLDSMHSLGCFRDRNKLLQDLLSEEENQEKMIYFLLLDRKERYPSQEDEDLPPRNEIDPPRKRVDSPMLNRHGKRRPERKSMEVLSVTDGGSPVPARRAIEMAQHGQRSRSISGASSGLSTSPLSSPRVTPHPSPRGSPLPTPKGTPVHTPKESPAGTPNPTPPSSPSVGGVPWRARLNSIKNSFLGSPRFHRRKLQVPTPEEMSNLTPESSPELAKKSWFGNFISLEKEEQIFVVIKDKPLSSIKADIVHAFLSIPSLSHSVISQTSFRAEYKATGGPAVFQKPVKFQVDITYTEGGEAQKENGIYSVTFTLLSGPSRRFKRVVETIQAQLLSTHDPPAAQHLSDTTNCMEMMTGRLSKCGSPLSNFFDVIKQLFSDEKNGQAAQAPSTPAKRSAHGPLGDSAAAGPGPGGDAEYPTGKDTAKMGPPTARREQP

Her4(ERBB4) = Her4(ERBB4) (Homo sapiens, UniProt Q15303); assay: Kinase selectivity profiling
Chain of Her4(ERBB4) (Q15303 26-1308): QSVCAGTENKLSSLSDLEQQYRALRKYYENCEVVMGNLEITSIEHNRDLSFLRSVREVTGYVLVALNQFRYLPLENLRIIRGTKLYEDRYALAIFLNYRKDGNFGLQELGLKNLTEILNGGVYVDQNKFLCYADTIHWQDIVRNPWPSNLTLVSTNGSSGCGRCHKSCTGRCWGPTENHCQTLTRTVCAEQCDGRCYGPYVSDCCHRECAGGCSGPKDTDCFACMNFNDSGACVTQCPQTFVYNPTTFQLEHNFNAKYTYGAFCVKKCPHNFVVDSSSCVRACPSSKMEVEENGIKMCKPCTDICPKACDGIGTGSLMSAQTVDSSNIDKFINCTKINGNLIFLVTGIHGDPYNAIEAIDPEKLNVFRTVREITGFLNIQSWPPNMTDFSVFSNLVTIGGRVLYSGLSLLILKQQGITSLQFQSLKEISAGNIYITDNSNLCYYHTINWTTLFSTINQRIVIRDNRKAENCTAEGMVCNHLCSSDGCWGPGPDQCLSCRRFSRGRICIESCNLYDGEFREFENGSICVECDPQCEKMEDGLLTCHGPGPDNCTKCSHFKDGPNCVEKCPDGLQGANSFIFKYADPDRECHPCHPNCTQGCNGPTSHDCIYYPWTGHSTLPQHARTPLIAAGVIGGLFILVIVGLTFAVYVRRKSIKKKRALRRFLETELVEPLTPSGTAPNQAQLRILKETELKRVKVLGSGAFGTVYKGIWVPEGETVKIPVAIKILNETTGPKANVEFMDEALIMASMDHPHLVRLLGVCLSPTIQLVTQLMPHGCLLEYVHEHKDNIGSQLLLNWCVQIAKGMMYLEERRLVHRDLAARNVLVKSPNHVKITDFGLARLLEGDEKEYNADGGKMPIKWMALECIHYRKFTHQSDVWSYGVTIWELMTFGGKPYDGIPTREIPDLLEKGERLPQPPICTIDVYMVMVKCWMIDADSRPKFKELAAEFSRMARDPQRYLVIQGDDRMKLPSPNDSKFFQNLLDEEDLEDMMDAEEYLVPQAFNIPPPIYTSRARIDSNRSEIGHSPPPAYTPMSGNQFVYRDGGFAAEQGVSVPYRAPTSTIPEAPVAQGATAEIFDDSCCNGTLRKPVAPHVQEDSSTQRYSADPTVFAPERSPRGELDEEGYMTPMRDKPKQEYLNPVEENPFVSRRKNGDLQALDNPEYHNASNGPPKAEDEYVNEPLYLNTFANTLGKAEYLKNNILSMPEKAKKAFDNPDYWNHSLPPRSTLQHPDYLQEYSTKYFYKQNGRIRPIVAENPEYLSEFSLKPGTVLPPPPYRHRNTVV

MAP4K2 = MAP4K2 (Homo sapiens, UniProt Q12851); assay: Kinase selectivity profiling
CSK = CSK (Homo sapiens, UniProt P41240); assay: Kinase selectivity profiling
Chain of CSK (P41240 whole entry): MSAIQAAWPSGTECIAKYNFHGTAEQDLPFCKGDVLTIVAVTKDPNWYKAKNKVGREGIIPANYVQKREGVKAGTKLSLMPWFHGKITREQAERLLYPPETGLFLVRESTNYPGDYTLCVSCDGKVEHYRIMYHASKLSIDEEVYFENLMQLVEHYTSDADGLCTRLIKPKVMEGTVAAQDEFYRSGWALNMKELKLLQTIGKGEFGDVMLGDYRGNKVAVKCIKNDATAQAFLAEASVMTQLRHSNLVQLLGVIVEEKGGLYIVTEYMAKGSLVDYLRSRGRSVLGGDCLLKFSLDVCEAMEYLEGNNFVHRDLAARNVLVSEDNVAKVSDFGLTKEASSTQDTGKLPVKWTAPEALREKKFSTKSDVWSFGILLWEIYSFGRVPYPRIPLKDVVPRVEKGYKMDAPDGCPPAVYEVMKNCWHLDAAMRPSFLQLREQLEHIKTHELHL

LYNb = LYNb (Homo sapiens, UniProt P07948); assay: Kinase selectivity profiling
FGFR1 = FGFR1 (Homo sapiens, UniProt P11362); assay: Kinase inhibition assay (ADP-Glo); assay type: biochemical; parameters: human FGFR1 (residues 456–765); 6xHis + PreScission site (N, cleaved yes); made in house; host or cells: Escherichia coli Rosseta
Experimental: Wild-type FGFRs and mutant FGFRs were prepared as previously described[25]–[27]. In brief, the kinase domains of human FGFR1 (residues 456–765), FGFR2 (residues 453–770), FGFR3 (residues 450–758), and FGFR4 (residues 445–753) were cloned into a modified pET28a expression vector and then transfected into Escherichia coli Rosseta cells. The N-terminal of the recombinant proteins were contained a 6xHis tag followed by a PreScission cleavage site for FGFR1, FGFR2, FGFR3, and FGFR4. Site-directed mutagenesis of FGFR4 was generated according to the ClonExpress II One Step Cloning Kit (Vazyme) using the pET28a-FGFR4 plasmid as the template. These mutants were confirmed by DNA sequencing (Tsingke, Changsha, China). For crystallization experiments, the wild-type FGFR4 plasmid was co-expressed with untagged YOPH to obtain non-phosphorylated proteins. The proteins were first purified by Ni-NTA affinity chromatography. […]
All kinase inhibition assays were performed with optimized kinase assay buffer consisting of 40 mM Tris-HCl pH 7.5, 20 mM MgCl2, 20 mM NaCl, 0.1 mg/mL BSA, 1 mM TCEP, and 4% DMSO. […] Fluorescence was measured on a multimode plate reader (Perkin-Elmer) using a chemiluminescence program after the addition of the detection reagent. IC50 values were determined using a three-parameter log [Inhibitor] versus response model in GraphPad Prism software.

Erk1 = Erk1 (Homo sapiens, UniProt P27361); assay: Kinase selectivity profiling
Chain of Erk1 (P27361 whole entry): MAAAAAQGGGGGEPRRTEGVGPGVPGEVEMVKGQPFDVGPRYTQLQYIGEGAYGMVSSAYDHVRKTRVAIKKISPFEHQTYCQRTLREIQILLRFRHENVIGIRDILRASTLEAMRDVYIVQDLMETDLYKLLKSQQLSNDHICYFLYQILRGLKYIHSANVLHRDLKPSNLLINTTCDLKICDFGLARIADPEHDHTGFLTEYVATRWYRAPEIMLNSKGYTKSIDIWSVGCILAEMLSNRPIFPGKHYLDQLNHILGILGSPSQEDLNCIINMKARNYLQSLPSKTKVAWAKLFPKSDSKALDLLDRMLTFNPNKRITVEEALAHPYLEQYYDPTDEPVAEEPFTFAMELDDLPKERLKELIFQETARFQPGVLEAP

p70S6K = p70S6K (Homo sapiens, UniProt P23443); assay: Kinase selectivity profiling
Chain of p70S6K (P23443 whole entry): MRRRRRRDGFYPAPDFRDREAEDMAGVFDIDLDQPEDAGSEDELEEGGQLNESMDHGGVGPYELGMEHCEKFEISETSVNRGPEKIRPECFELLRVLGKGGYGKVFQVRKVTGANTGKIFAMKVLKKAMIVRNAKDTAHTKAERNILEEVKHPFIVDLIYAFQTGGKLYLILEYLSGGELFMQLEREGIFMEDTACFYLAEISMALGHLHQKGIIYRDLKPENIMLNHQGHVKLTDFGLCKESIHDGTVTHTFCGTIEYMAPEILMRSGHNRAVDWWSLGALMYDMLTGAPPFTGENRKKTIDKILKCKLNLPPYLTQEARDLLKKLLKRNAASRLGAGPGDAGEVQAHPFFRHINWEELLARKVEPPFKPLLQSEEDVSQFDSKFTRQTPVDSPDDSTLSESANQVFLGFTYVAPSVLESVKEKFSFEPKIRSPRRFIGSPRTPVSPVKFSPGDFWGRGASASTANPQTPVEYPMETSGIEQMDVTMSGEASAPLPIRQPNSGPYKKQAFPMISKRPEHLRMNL

RSK2 = RSK2 (Homo sapiens, UniProt P51812); assay: Kinase selectivity profiling
PIK3CA/PIK3R1 = PIK3CA/PIK3R1 (Homo sapiens, UniProt P42336); assay: Kinase selectivity profiling
FLT4 (VEGFR3) = FLT4 (VEGFR3) (Homo sapiens, UniProt P35916); assay: Kinase selectivity profiling
SGK = SGK (Homo sapiens, UniProt O00141); assay: Kinase selectivity profiling
BTK = BTK (Homo sapiens, UniProt Q06187); assay: Kinase selectivity profiling
DDR1 = DDR1 (Homo sapiens, UniProt Q08345); assay: Kinase selectivity profiling
SGK2 = SGK2 (Homo sapiens, UniProt Q9HBY8); assay: Kinase selectivity profiling
Chain of SGK2 (Q9HBY8 whole entry): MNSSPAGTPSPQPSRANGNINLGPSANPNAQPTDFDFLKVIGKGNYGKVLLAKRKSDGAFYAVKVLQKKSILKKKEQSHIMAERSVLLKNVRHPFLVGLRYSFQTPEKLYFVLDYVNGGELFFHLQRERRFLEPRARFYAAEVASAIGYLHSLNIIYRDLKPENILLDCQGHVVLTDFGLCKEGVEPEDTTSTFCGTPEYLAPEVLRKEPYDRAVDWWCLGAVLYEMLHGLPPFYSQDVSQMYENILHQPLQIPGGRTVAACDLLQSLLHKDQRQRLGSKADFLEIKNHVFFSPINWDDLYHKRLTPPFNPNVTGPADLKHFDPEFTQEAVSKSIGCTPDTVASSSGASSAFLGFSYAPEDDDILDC

DYRK1A = DYRK1A (Homo sapiens, UniProt Q13627); assay: Kinase selectivity profiling
JAK1 = JAK1 (Homo sapiens, UniProt P23458); assay: Kinase selectivity profiling
PIM1 = PIM1 (Homo sapiens, UniProt P11309); assay: Kinase selectivity profiling
FER = FER (Homo sapiens, UniProt P16591); assay: Kinase selectivity profiling
Chain of FER (P16591 whole entry): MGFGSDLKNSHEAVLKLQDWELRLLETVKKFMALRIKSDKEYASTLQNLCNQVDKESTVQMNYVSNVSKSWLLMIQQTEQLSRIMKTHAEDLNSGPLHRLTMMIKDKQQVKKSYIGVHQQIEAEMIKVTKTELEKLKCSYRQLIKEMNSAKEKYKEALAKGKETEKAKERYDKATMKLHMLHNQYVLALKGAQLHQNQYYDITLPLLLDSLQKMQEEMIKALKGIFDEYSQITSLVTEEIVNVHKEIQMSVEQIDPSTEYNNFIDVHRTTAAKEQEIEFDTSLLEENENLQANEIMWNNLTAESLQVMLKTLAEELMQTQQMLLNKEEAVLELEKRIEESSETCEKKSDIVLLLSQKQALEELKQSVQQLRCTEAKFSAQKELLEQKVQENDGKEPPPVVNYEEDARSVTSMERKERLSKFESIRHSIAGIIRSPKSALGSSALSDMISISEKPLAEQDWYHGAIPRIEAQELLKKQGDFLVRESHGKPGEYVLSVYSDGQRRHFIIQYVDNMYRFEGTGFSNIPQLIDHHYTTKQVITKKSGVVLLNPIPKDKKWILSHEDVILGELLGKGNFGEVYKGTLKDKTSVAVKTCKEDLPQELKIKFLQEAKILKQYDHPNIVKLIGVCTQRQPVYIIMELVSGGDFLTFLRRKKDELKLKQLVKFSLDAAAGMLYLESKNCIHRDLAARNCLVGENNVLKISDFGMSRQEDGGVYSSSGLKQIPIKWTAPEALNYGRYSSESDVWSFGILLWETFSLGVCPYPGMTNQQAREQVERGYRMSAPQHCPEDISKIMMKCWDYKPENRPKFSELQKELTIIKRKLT

EPHA6 = EPHA6 (Homo sapiens, UniProt Q9UF33); assay: Kinase selectivity profiling
CDK6/CycD1 = CDK6/CycD1 (Homo sapiens, UniProt Q00534); assay: Kinase selectivity profiling
YSK1 = YSK1 (Homo sapiens, UniProt O00506); assay: Kinase selectivity profiling
Chain of YSK1 (O00506 whole entry): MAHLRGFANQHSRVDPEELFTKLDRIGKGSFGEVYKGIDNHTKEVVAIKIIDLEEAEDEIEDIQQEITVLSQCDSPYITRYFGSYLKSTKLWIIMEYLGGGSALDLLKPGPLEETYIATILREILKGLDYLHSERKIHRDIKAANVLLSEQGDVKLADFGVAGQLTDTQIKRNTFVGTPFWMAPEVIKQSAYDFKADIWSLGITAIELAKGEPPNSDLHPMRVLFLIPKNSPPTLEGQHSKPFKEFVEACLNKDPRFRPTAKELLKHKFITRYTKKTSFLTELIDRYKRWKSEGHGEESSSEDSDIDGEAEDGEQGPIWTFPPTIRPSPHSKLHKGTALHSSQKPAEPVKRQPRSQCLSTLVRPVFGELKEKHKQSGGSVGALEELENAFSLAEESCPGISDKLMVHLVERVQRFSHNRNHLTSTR

## C=CC(=O)Nc1ccccc1Nc1ncc2c(n1)N(CCCN1CCN(C(=O)C=C)CC1)C(=O)N(c1cc(OC)cc(OC)c1)C2 [CXF-009]
CDK3/CycE1
  inhibition at 1 µM: -7.17%
HIPK3
  inhibition at 1 µM: -4.6%
ALK4
  inhibition at 1 µM: 0.23%
ABL2
  inhibition at 1 µM: 1.61%
AurB
  inhibition at 1 µM: -2.47%
FES
  inhibition at 1 µM: -7.81%
BRSK2
  inhibition at 1 µM: -5.03%
Her4(ERBB4)
  inhibition at 1 µM: 0.69%
MAP4K2
  inhibition at 1 µM: 1.43%
CSK
  inhibition at 1 µM: 3.29%
LYNb
  inhibition at 1 µM: 7.62%
FGFR1
  pIC50: 5.59
Erk1
  inhibition at 1 µM: 3.99%
p70S6K
  inhibition at 1 µM: 1.69%
RSK2
  inhibition at 1 µM: 2.24%
PIK3CA/PIK3R1
  inhibition at 1 µM: -35%
FLT4 (VEGFR3)
  inhibition at 1 µM: 0.74%
SGK
  inhibition at 1 µM: 2.9%
BTK
  inhibition at 1 µM: -5.76%
DDR1
  inhibition at 1 µM: -3.41%
SGK2
  inhibition at 1 µM: 0.51%
DYRK1A
  inhibition at 1 µM: -1.23%
JAK1
  inhibition at 1 µM: -12.3%
PIM1
  inhibition at 1 µM: 24.2%
FER
  inhibition at 1 µM: 37.1%
EPHA6
  inhibition at 1 µM: 5.28%
CDK6/CycD1
  inhibition at 1 µM: -9.58%
YSK1
  inhibition at 1 µM: -8.51%
